These results are taken from patent US6071882A, “Means for treating prostate hypertrophy and prostate cancer” (ASTA Medica AG, priority 1998, dated 2000).

Data set [1] has as its system BPH patients. As to the kind of experiment: Clinical therapy of BPH with Cetrorelix. The class given is in vivo. On the procedure:
Cetrorelix is administered in a dose of 0.5 mg to 2 mg daily for 4 to 8 weeks for the therapy of BPH. A dose of 5 mg to 30 mg, dispensed once per week or every 10 days also over a time period of 4 to 8 weeks as well as one every two weeks or one injection per month of 20 mg to 60 mg can also decisively improve the clinical symptoms and signs. […] The prostate volume decreases by 20 to 40% during the treatment time of 4 to 8 weeks. […] In addition, at least 30% of the patients achieve an improvement of the urine flow of 6 ml/sec with this therapy. This is almost equivalent to an improvement like that associated with the golden standard operation, and in considerably shorter time. […] These clinical benefits continue for at least 3 to 6 months after therapy. This allows a long-term therapy of BPH with only an intermittent treatment of 2 to max. 4 injection cycles over 4 to 8 weeks.

Data set [2] concerns BPH patients. To be noted: cited from earlier work.
The subject of data set [3] is Prostate carcinoma patients. Conditions: 500 μg every 12 hours for 6 weeks; cited from earlier work.

Non-standard residues stand in square brackets, D forms with d. Residues, ends and D or L forms follow the SMILES beside them. dPhe(4-Cl) = N[C@H](Cc1ccc(Cl)cc1)C(=O)O; d2Nal = N[C@H](Cc1ccc2ccccc2c1)C(=O)O; dCit = NC(=O)NCCC[C@@H](N)C(=O)O; d3Pal = N[C@H](Cc1cccnc1)C(=O)O

For `CC(=O)N[C@H](Cc1ccc2ccccc2c1)C(=O)N[C@H](Cc1ccc(Cl)cc1)C(=O)N[C@H](Cc1cccnc1)C(=O)N[C@@H](CO)C(=O)N[C@@H](Cc1ccc(O)cc1)C(=O)N[C@H](CCCNC(N)=O)C(=O)N[C@@H](CC(C)C)C(=O)N[C@@H](CCCNC(=N)N)C(=O)N1CCC[C@H]1C(=O)N[C@H](C)C(N)=O` [Cetrorelix] (Ac-[d2Nal][dPhe(4-Cl)][d3Pal]SY[dCit]LRP[dA]-NH2), the testosterone decrease entry in the data set with BPH patients [1] (above those levels associated with castration) is “Submaximal decreases of testosterone occur”. Also, in the data set with BPH patients [1] (human, in vivo), the “limitations in sexual performance” value is listed as “No limitations in sexual performance are observed” and the quality of life result is given as “significant improvements”. For the same compound, in the data set on BPH patients [1] (treatment of 4 to 8 weeks), the “increase of the peak flow of the urine” value is given as “approximately 3 ml/sec” and the “patients achieving an improvement of the urine flow of 6 ml/sec” value is on record as “at least 30%”. Moreover, the “testosterone levels during treatment” value in the data set with BPH patients [2] (500 μg every 12 hours for 4 weeks, no castration values during last three weeks) is recorded as “fluctuated at subnormal levels”. Further, the “testosterone levels, initially” value in the data set on BPH patients [2] (500 μg every 12 hours, all patients (BPH and prostate carcinoma), initially) is “lowering in testosterone levels to a castration level”. Also, the “overall condition of the patient” value in data set [3] is recorded as “considerable improvement”.
